Common to all, as to format: cell-based
For experiment [1], the system named is Isogenic E. coli J58 strain carrying IMP-1. Put plainly: MIC determination, isogenic E. coli strains. The note with it: Escherichia coli, 18 h, read-out: Mimimum Inhibitory Concentrations, IMP-1. The method, boiled down: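 Broth microdilution in cation-adjusted Mueller-Hinton broth with 20 μM apo-transferrin, compound serially diluted two-fold from 64 μg/mL, against E. coli J53 carrying plasmid-borne IMP-1. Inoculum adjusted to 0.5 McFarland; plates incubated 18 h at 37° C. MIC taken as lowest concentration giving a clear well.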

Experiment [2] concerns Isogenic E. coli J58 strain carrying KPC-2. Briefly: MIC determination, isogenic E. coli strains. The note with it: Escherichia coli, 18 h, read-out: Mimimum Inhibitory Concentrations, KPC-2. Put shortly: (§1)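 Broth microdilution in cation-adjusted Mueller-Hinton broth with 20 μM apo-transferrin, compound at 64 down to […], inoculum set to 0.5 McFarland. E. coli J53 transformed with pBC-SK(+) carrying the synthetic beta-lactamase gene was used. Plates were incubated 18 h at 37 °C; MIC is the lowest concentration giving a clear well.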

Experiment [3] concerns Isogenic E. coli J58 strain carrying KPC-3. Put plainly: MIC determination, isogenic E. coli strains. The conditions noted are these: Escherichia coli, 18 h, read-out: Mimimum Inhibitory Concentrations, KPC-3. The method, boiled down:
as §1

The test system of experiment [4] is Isogenic E. coli J58 strain carrying SHV-1. Briefly: MIC determination, isogenic E. coli strains. The conditions noted are these: Escherichia coli, 18 h, read-out: Mimimum Inhibitory Concentrations, SHV-1. The method, boiled down:
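MIC is the lowest compound concentration leaving a transparent well after overnight (18 h) incubation at 37 °C. The test strain was E. coli J53 expressing plasmid-borne SHV-1 beta-lactamase from pBC-SK(+), adjusted to 0.5 McFarland. Compounds were twofold serially diluted, starting at 64 μg/mL, in CAMH broth supplemented with 20 μM apo-transferrin.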

For experiment [5], the system named is Pseudomonas aeruginosa PA-RR-(G8062859). Put plainly: MIC determination. The conditions noted are these: Pseudomonas aeruginosa; PA-RR-(G8062859); CAMH broth, 20 μM Apo-Transferrin, 37° C., 18 hours; read-out: Minimum Inhibitory Concentrations, PA-RR-(G8062859). The method, boiled down:
(§2)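 Broth microdilution in cation-adjusted Mueller-Hinton broth with 20 μM apo-transferrin, two-fold compound series from 64 μg/mL, inoculum adjusted to 0.5 McFarland from 4-5 h LB cultures. Plates incubated 18 h at 37 °C. MIC taken as lowest concentration leaving a clear well.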

For experiment [6], the system named is Pseudomonas aeruginosa PA-RR-(purple Fre D). Briefly: MIC determination. The conditions noted are these: Pseudomonas aeruginosa, CAMH broth, 20 μM Apo-Transferrin, 37° C., 18 hours, read-out: Minimum Inhibitory Concentrations, PA-RR-(purple Fre D). Put shortly: as §2

Each structure is given as a SMILES string. Bounds are passed on as bounds.

For `Cn1c[n+](Cc2ccc(C=CC3=C(C(=O)O)N4C(=O)[C@@H](NC(=O)/C(=N\OC(C)(C)C(=O)O)c5csc(N)n5)[C@H]4SC3)cc2)cc1C(=O)Nc1ccc(O)c(O)c1` (mixture of isomers) [Compound 411, 3-(4-((E/Z)-2-((6R,7R)-7-((Z)-2-(2-aminothiazol-4-yl)-2-(((2-carboxypropan-2-yl)oxy)imino)acetamido)-2-carboxy-8-oxo-5-thia-1-azabicyclo[4.2.0]oct-2-en-3-yl)vinyl)benzyl)-5-((3,4-dihydroxyphenyl)carbamoyl)-1-methyl-1H-imidazol-3-ium], the MIC is 64 µg/mL in experiment [1]; 32 µg/mL in experiment [2]; 8 µg/mL in experiment [3]; 4 µg/mL in experiment [4]; 2 µg/mL in experiment [5]; 2 µg/mL in experiment [6].
`CC(C)(O/N=C(\C(=O)N[C@@H]1C(=O)N2C(C(=O)O)=C(C=Cc3ccc(C[n+]4cccc(-c5ccc(O)c(O)c5)c4)cc3)CS[C@H]12)c1csc(N)n1)C(=O)O` (mixture of isomers) [Compound 413, 1-(4-((E/Z)-2-((6R,7R)-7-((Z)-2-(2-aminothiazol-4-yl)-2-(((2-carboxypropan-2-yl)oxy)imino)acetamido)-2-carboxy-8-oxo-5-thia-1-azabicyclo[4.2.0]oct-2-en-3 yl)vinyl)benzyl)-3-(3,4-dihydroxyphenyl)pyridin-1-ium]: the MIC amounted to 64 µg/mL in experiment [1]; 8 µg/mL in experiment [2]; 4 µg/mL in experiment [3]; 2 µg/mL in experiment [4]; 2 µg/mL in experiment [5]; 2 µg/mL in experiment [6].
As to `Cc1c[n+](Cc2ccc(C=CC3=C(C(=O)O)N4C(=O)[C@@H](NC(=O)/C(=N\OC(C)(C)C(=O)O)c5csc(N)n5)[C@H]4SC3)cc2)ccc1-c1ccc(O)c(O)c1` (mixture of isomers) [Compound 422, 1-(4-((E/Z)-2-((6R,7R)-7-((Z)-2-(2-aminothiazol-4-yl)-2-(((2-carboxypropan-2-yl)oxy)imino)acetamido)-2-carboxy-8-oxo-5-thia-1-azabicyclo[4.2.0]oct-2-en-3-yl)vinyl)benzyl)-4-(3,4-dihydroxyphenyl)-3-methylpyridin-1-ium], the MIC in experiment [1] was more than 64 µg/mL; in experiment [2], 16 µg/mL; in experiment [3], 8 µg/mL; in experiment [4], 2 µg/mL; in experiment [5], 2 µg/mL; in experiment [6], 1 µg/mL.
As for `CC(C)(O/N=C(\C(=O)N[C@@H]1C(=O)N2C(C(=O)O)=C(C=Cc3ccc(C[N+]4(C)Cc5cc(O)c(O)cc5C4)cc3)CS[C@H]12)c1csc(N)n1)C(=O)O` (mixture of isomers) [Compound 424, 2-(4-((E/Z)-2-((6R,7R)-7-((Z)-2-(2-aminothiazol-4-yl)-2-(((2-carboxypropan-2-yl)oxy)imino)acetamido)-2-carboxy-8-oxo-5-thia-1-azabicyclo[4.2.0]oct-2-en-3-yl)vinyl)benzyl)-5,6-dihydroxy-2-methylisoindolin-2-ium], the MIC in experiment [1] was more than 64 µg/mL; in experiment [2], 32 µg/mL; in experiment [3], 8 µg/mL; in experiment [4], 2 µg/mL; in experiment [5], 2 µg/mL; in experiment [6], 2 µg/mL.
As to `CC(C)(O/N=C(\C(=O)N[C@@H]1C(=O)N2C(C(=O)O)=C(C=Cc3ccc(C[N+](C)(C)Cc4ccc(O)c(O)c4)cc3)CS[C@H]12)c1csc(N)n1)C(=O)O` (mixture of isomers) [Compound 426, N-(4-((E/Z)-2-((6R,7R)-7-((Z)-2-(2-aminothiazol-4-yl)-2-(((2-carboxypropan-2-yl)oxy)imino)acetamido)-2-carboxy-8-oxo-5-thia-1-azabicyclo[4.2.0]oct-2-en-3-yl)vinyl)benzyl)-1-(3,4-dihydroxyphenyl)-N,N-dimethylmethanaminium], the MIC in experiment [1] turned out to be 32 µg/mL; in experiment [2], 64 µg/mL; in experiment [3] it was 8 µg/mL; in experiment [4] it was 0.5 µg/mL; in experiment [5], 2 µg/mL; in experiment [6] it was 1 µg/mL.

These data come from patent publication US20190100534A1, “Cephem Compounds with Latent Reactive Groups” (Gladius Pharmaceuticals, Inc., priority 2017, published 2019).
